Measured values reported in US7354726B2, “Screening method” (Takeda Pharmaceutical Company Limited, priority 2001, dated 2008).

Key:
TGR5 [1] = target: T1, TGR5 (Homo sapiens, UniProt Q8TDU6); experiment: cAMP production in TGR5 expressing CHO cells (CHO-TGR5); format: cell-based; design: expressed in transfected cells; details: CHO-TGR5, 20 minutes; potency in order TLCA, LCA, DCA, CDCA, CA
T1 sequence (Q8TDU6 1-330): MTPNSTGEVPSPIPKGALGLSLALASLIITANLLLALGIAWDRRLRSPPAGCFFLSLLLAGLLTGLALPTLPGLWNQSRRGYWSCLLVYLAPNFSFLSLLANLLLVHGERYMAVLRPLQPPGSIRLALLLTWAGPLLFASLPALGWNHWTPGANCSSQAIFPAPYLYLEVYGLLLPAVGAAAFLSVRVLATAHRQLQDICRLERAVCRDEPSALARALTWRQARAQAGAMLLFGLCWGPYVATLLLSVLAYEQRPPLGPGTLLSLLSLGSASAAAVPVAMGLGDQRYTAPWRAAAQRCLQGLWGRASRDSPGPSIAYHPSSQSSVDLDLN
Method: The cells were washed twice with assay buffer (DMEM supplemented with 0.1% bovine serum albumin and 0.2 mM 3-isobutyl-1-methylxanthine (IBMX)) and preincubated for 30 minutes. After washing the cells twice, a sample diluted with assay buffer was added to the cells, and the cells were incubated for 20 minutes. The culture supernatant was discarded, and by cAMP Screen System (ABI), cAMP production level was measured. […] The cAMP production level was represented by % for positive control as 100%.

rabbit TGR5 = target: T2, rabbit TGR5 (Oryctolagus cuniculus, UniProt Q862A8); experiment: CRE-luciferase reporter assay in CHO-mock cells co-expressing Gi and rabbit TGR5; format: cell-based; details: 10 μM bile acid, rabbit TGR5, versus group with no bile acid (Base)
T2 construct: expressed in transfected cells; host or cells: CHO-mock cells, transient, with Gi plasmid and reporter plasmid
T2 sequence (Q862A8 1-330): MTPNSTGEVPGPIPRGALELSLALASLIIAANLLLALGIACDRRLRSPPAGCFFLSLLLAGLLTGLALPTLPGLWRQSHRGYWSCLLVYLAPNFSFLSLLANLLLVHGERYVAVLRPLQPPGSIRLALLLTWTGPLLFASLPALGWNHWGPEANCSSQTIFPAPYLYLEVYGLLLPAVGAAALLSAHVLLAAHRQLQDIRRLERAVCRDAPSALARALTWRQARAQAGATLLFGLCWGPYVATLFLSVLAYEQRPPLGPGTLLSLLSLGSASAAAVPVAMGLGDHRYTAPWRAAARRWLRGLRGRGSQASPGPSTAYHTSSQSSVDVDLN
Method: (§1) Alternatively, an assay under condition wherein forskolin was added to the assay buffer at the final concentration of 2 μM, was performed in the same way. […] After completion of incubation, the assay buffer was removed from each well. Then 50 μl of luminescent substrate for PicaGene LT2.0 (Toyo Ink) was added to each well.
(§2) The mixing ratio of these three plasmids is, where the total volume is 11 μl, appropriate for 1 to 6, preferably 1 to 3 of Gi.
(§3) For a positive control of reporter gene expression, forskolin (FSSK, 2 μM) was used.

bovine TGR5 = target: T3, bovine TGR5 (Bos taurus, UniProt Q862A9); experiment: CRE-luciferase reporter assay in CHO-mock cells co-expressing Gi and bovine TGR5; format: cell-based; details: 10 μM bile acid, bovine TGR5, versus group with no bile acid (Base)
T3 construct: expressed in transfected cells; host or cells: CHO-mock cells, transient, with Gi plasmid and reporter plasmid
T3 sequence (Q862A9 1-329): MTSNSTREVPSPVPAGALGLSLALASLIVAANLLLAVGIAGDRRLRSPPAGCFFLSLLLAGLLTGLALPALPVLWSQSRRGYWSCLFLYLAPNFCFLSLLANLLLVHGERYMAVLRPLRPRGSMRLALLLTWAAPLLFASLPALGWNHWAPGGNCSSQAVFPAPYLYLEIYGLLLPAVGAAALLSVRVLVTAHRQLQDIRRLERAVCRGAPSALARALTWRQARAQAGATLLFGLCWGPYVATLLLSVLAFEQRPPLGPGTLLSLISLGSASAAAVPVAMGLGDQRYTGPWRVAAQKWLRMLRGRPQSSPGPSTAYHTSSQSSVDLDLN
Method: as §1, §2, §3

TGR5 [2] = target: T1, TGR5; experiment: CRE-luciferase reporter assay in CHO-mock cells co-expressing Gi and human TGR5; format: cell-based; design: expressed in transfected cells; host or cells: CHO-mock cells (CHO(dhfr-) transformed with pAKKO-111H), transient, with Gi plasmid and reporter plasmid; details: 10 μM bile acid, human TGR5, versus group with no bile acid (Base)
Method: as §1, §2, §3

rat TGR5 = target: T4, rat TGR5 (Rattus norvegicus, UniProt Q80T02); experiment: CRE-luciferase reporter assay in CHO-mock cells co-expressing Gi and rat TGR5; format: cell-based; details: 10 μM bile acid, rat TGR5, versus group with no bile acid (Base)
T4 construct: expressed in transfected cells; host or cells: CHO-mock cells, transient, with Gi plasmid and reporter plasmid
T4 sequence (Q80T02 1-329): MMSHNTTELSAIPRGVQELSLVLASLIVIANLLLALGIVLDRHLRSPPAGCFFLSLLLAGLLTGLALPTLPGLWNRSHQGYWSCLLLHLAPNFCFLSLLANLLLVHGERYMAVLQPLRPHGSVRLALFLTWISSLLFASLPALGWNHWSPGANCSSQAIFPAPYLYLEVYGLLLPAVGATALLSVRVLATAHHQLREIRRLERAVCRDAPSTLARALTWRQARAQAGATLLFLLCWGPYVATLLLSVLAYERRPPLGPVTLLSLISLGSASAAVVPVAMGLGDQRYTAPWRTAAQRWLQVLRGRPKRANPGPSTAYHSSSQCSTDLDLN
Method: as §1, §2, §3

mouse TGR5 = target: T5, mouse TGR5 (Mus musculus, UniProt Q80SS6); experiment: CRE-luciferase reporter assay in CHO-mock cells co-expressing Gi and mouse TGR5; format: cell-based; details: 10 μM bile acid, mouse TGR5, versus group with no bile acid (Base)
T5 construct: expressed in transfected cells; host or cells: CHO-mock cells, transient, with Gi plasmid and reporter plasmid
T5 sequence (Q80SS6 1-329): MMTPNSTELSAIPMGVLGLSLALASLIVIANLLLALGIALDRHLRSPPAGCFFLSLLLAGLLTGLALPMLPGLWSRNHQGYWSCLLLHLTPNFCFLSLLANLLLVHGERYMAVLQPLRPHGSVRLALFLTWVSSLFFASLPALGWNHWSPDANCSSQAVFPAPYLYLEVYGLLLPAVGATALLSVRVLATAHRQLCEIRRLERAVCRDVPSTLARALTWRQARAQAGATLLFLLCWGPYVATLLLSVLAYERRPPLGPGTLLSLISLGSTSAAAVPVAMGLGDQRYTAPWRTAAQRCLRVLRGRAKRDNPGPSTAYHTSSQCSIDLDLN
Method: as §1, §2, §3

[3] = tested on: rabbit alveolus macrophage; experiment: Phagocytotic activity of rabbit alveolus macrophage (yeast uptake, fuchsin staining); details: 100 μM, 16 hours
Method: From rabbit (NZW, female, approximately 2.5 to 3.0 kg of weight), under anesthesia, serum and lung were collected. By washing with PBS (phosphate-buffered saline) transfused through trachea, suspension containing alveolus macrophage in the lung was recovered. After washing the obtained cells with further PBS, the cells were suspended in medium (DMEM supplemented with 2% FBS, 0.1 mM non-essential amino acids, 50 μg/ml streptomycin, 50 U/ml penicillin and 50 μg/ml gentamicin; any component from GibcoBRL), loaded on Ficoll-Paque Plus (Amersham Pharmacia), isolator for mononuclear cells, and treated with centrifugation to remove erythrocyte. […] Then the cells were further cultured for 16 hours. Fifty μl of serum obtained from the same rabbit, and 0.8×10^8/ml of yeast suspension sterilized by heating, were added to the culture. Subsequently, the cell were cultured under 5% CO2 for 40 minutes. After adding 60 μl of 0.1% fuchsin solution (Wako Pure Chemicals) to the culture, the cells were peeled and were centrifuged. The suspension was observed by microscope.

Row | Structure (SMILES) | cAMP production (TGR5 [1]) | luciferase activity (reporter gene expression level) (rabbit TGR5) | luciferase activity (reporter gene expression level) (bovine TGR5) | luciferase activity (reporter gene expression level) (TGR5 [2]) | luciferase activity (reporter gene expression level) (rat TGR5) | luciferase activity (reporter gene expression level) (mouse TGR5) | phagocytotic activity of macrophage [3]
1 | C[C@H](CCC(=O)O)[C@H]1CC[C@H]2[C@@H]3[C@H](O)C[C@@H]4C[C@H](O)CC[C@]4(C)[C@H]3C[C@H](O)[C@]12C [CA, cholic acid] | increase of cAMP production, which is dependent on concentration |  |  |  |  |  | 
2 | C[C@H](CCC(=O)O)[C@H]1CC[C@H]2[C@@H]3[C@H](O)C[C@@H]4C[C@H](O)CC[C@]4(C)[C@H]3CC[C@]12C [CDCA, chenodeoxycholic acid] | increase of cAMP production, which is dependent on concentration | higher luciferase activity than that of a group with no bile acid | higher luciferase activity than that of a group with no bile acid | higher luciferase activity than that of a group with no bile acid | higher luciferase activity than that of a group with no bile acid | higher luciferase activity than that of a group with no bile acid | 
3 | C[C@H](CCC(=O)NCC(=O)O)[C@H]1CC[C@H]2[C@@H]3CC[C@@H]4C[C@H](O)CC[C@]4(C)[C@H]3CC[C@]12C [GLCA, glycolithocholic acid] |  |  |  |  |  |  | significantly decreased
